Laboratory results reported in US9072293B2, “Cyclopropenes and method for applying cyclopropenes to agricultural products or crops” (Erum Biotechnologies Inc., priority 2010, dated 2015).
Values joined by “and” are separate entries in the source; they are usually repeats but may differ in a detail not shown here. Equal entries are not always repeated.

System: not listed separately
Test: Relative chemical stability of cyclopropenes measured by 1H-NMR
Format: physicochemical
Conditions: 1H-NMR, CDCl3, stored at −20° C. or room temperature; relative to chain length 1
Source text: A variety of analysis methods can be used to analyze the derivatives of Formula 6, since the absorbance of cyclopropenes containing an aryl group can be easily measured in the UV range. It can be confirmed that the chemical stability of the derivatives increases, when the length of chains to link an aryl ring to a cyclopropene ring is 2 or more. […] It is supposed that the stability of cyclopropenes increase due to the fact that π electrons of aryl groups affect π electrons of cyclopropenes.
The following Table 1 summarizes the relative chemical stability of cyclopropenes having a chain length of 2, 3, 4 or 5, based on the chemical stability of cyclopropenes having a chain length of 1. In the case of cyclopropene having a chain length of 1, the structure thereof can be confirmed via ^1H-NMR within one hour following synthesis (degraded to a level of 50% or more within one hour at 30° C.). In the case of cyclopropene having a chain length of zero, synthesis thereof was attempted in accordance with the present invention, but was impossible by a conventional method. Meanwhile, in the case of cyclopropenes having a chain length of 2 or more, the structure thereof can be precisely confirmed by ^1H-NMR as well as ^13C-NMR. The stability of these cyclopropenes was measured by ^1H-NMR while NMR cells (CDCl3) were stored at −20° C. or room temperature. In particular, cyclopropenes having chains of 3 or more were so stable that their half-life reached 5 days or longer at −20° C. or lower. In ^1H-NMR analysis, the stability was evaluated by comparing integral values at 4 to 6.5 ppm (1H) and 0.8 to 0.9 ppm (2H), characteristic peaks of 1-alkylcyclopropenes, using a small amount of 1,1,3,3-tetramethylurea (2.80 ppm) as an internal standard. Furthermore, the stability was also qualitatively evaluated by comparing integral value of the peak newly generated adjacent to the peak of the olefin proton of cyclopropene ring, as a 1-alkylcyclopropene compound is decomposed.

SMILES | Stability (relative chemical stability, based on cyclopropenes having a chain length of 1)
COc1ccc(CCC2=CC2)cc1 [(2-(4-Methoxyphenyl)ethyl), 1-(2-(4-methoxyphenyl)ethyl)cyclopropene] | >10
COc1ccc(CCCC2=CC2)cc1 [(3-(4-Methoxyphenyl)propyl), 1-(3-(4-methoxyphenyl)propyl)cyclopropene] | >>10
C1=C(CCCOc2ccccc2)C1 [(3-Phenoxypropyl), 1-(3-phenoxypropyl)cyclopropene] | >>10

System: tomato
Test: Experimental Example 3: Efficacy test on tomato for other drugs (emulsion and oil-based formulation)
Format: in vivo
Set-up: key: an area in which the surface of tomato was colored in pink was 10% or less; an area in which the surface of tomato was completely colored in red was 10 to 40%; 2: an area in which the surface of tomato was completely colored in red was 40 to 70%; 3: an area in which the surface of tomato was completely colored in red was 70% or more and the bottom area remained green; 4: an area in which the surface of tomato was most colored in red and only a part of (0 to 10%) the bottom area remained green; 5: the surface of tomato did not entirely color in green
Conditions: 1.0 mM Emulsion, Day 0, room temperature (25-30° C.), individual tomatoes n=4
Description: At this time, the tops of tomatoes most early turned red, while the bottoms thereof most lately turned red. For this reason, in order to accurately evaluate the difference in reddening, the coloring evaluated was based on the area of red color, rather than the color of tomatoes. […] Accordingly, the grade level is proportional to the rate at which the tomatoes ripened.
1.0 mM emulsions and oil-based formulations of four agents, i.e., 1-(2-(4-methoxyphenyl)ethyl)cyclopropene, 1-(3-(4-methoxyphenyl)propyl)cyclopropene, 1-(3-phenoxypropyl)cyclopropene and 1-(4-phenoxybutyl)cyclopropene were prepared in accordance with Examples 1 and 2.
The tomatoes were screened in the same manner as in Experimental Example 1 and divided into 9 groups (n=4), i.e., a non-treated group and 4 emulsion-type agent groups and 4 oil-based formulation-type agent groups. Tomatoes were treated with the previously prepared agent using a household sprayer such that the surface thereof was saturated. The tomatoes were stood at room temperature (25-30° C.) for 3 days and a reddening level thereof was evaluated based on grades of 0 to 5.

SMILES | reddening level (grade 0 to 5)
COc1ccc(CCC2=CC2)cc1 [(2-(4-Methoxyphenyl)ethyl), 1-(2-(4-methoxyphenyl)ethyl)cyclopropene] | 0 (an area in which the surface of tomato was colored in pink was 10% or less) (2×) and 1 (an area in which the surface of tomato was completely colored in red was 10 to 40%) and 2 (an area in which the surface of tomato was completely colored in red was 40 to 70%)
COc1ccc(CCCC2=CC2)cc1 [(3-(4-Methoxyphenyl)propyl), 1-(3-(4-methoxyphenyl)propyl)cyclopropene] | 0 (an area in which the surface of tomato was colored in pink was 10% or less) (2×) and 1 (an area in which the surface of tomato was completely colored in red was 10 to 40%) and 2 (an area in which the surface of tomato was completely colored in red was 40 to 70%)
C1=C(CCCOc2ccccc2)C1 [(3-Phenoxypropyl), 1-(3-phenoxypropyl)cyclopropene] | 0 (an area in which the surface of tomato was colored in pink was 10% or less) (2×) and 1 (an area in which the surface of tomato was completely colored in red was 10 to 40%) and 2 (an area in which the surface of tomato was completely colored in red was 40 to 70%)

Same assay, conditions: 1.0 mM Emulsion, Day 1, room temperature (25-30° C.), individual tomatoes n=4

SMILES | reddening level (grade 0 to 5)
COc1ccc(CCC2=CC2)cc1 [(2-(4-Methoxyphenyl)ethyl), 1-(2-(4-methoxyphenyl)ethyl)cyclopropene] | 1 (an area in which the surface of tomato was completely colored in red was 10 to 40%) (2×) and 3 (an area in which the surface of tomato was completely colored in red was 70% or more and the bottom area remained green) (2×)
COc1ccc(CCCC2=CC2)cc1 [(3-(4-Methoxyphenyl)propyl), 1-(3-(4-methoxyphenyl)propyl)cyclopropene] | 0 (an area in which the surface of tomato was colored in pink was 10% or less) (2×) and 1 (an area in which the surface of tomato was completely colored in red was 10 to 40%) and 2 (an area in which the surface of tomato was completely colored in red was 40 to 70%)
C1=C(CCCOc2ccccc2)C1 [(3-Phenoxypropyl), 1-(3-phenoxypropyl)cyclopropene] | 0 (an area in which the surface of tomato was colored in pink was 10% or less) (2×) and 1 (an area in which the surface of tomato was completely colored in red was 10 to 40%) and 2 (an area in which the surface of tomato was completely colored in red was 40 to 70%)

Same assay, conditions: 1.0 mM Emulsion, Day 2, room temperature (25-30° C.), individual tomatoes n=4

SMILES | reddening level (grade 0 to 5)
COc1ccc(CCC2=CC2)cc1 [(2-(4-Methoxyphenyl)ethyl), 1-(2-(4-methoxyphenyl)ethyl)cyclopropene] | 3 (an area in which the surface of tomato was completely colored in red was 70% or more and the bottom area remained green) (2×) and 4 and 5
COc1ccc(CCCC2=CC2)cc1 [(3-(4-Methoxyphenyl)propyl), 1-(3-(4-methoxyphenyl)propyl)cyclopropene] | 1 (an area in which the surface of tomato was completely colored in red was 10 to 40%) (2×) and 2 (an area in which the surface of tomato was completely colored in red was 40 to 70%) and 3 (an area in which the surface of tomato was completely colored in red was 70% or more and the bottom area remained green)
C1=C(CCCOc2ccccc2)C1 [(3-Phenoxypropyl), 1-(3-phenoxypropyl)cyclopropene] | 1 (an area in which the surface of tomato was completely colored in red was 10 to 40%) (2×) and 2 (an area in which the surface of tomato was completely colored in red was 40 to 70%) (2×)

Same assay, conditions: 1.0 mM Emulsion, Day 3, room temperature (25-30° C.), individual tomatoes n=4

SMILES | reddening level (grade 0 to 5)
COc1ccc(CCC2=CC2)cc1 [(2-(4-Methoxyphenyl)ethyl), 1-(2-(4-methoxyphenyl)ethyl)cyclopropene] | 4 (2×) and 5 (2×)
COc1ccc(CCCC2=CC2)cc1 [(3-(4-Methoxyphenyl)propyl), 1-(3-(4-methoxyphenyl)propyl)cyclopropene] | 2 (an area in which the surface of tomato was completely colored in red was 40 to 70%) (2×) and 3 (an area in which the surface of tomato was completely colored in red was 70% or more and the bottom area remained green) and 4
C1=C(CCCOc2ccccc2)C1 [(3-Phenoxypropyl), 1-(3-phenoxypropyl)cyclopropene] | 2 (an area in which the surface of tomato was completely colored in red was 40 to 70%) (2×) and 3 (an area in which the surface of tomato was completely colored in red was 70% or more and the bottom area remained green) (2×)

Same assay, conditions: 1.0 mM Oil-based formulation, Day 0, room temperature (25-30° C.), individual tomatoes n=4

SMILES | reddening level (grade 0 to 5)
COc1ccc(CCC2=CC2)cc1 [(2-(4-Methoxyphenyl)ethyl), 1-(2-(4-methoxyphenyl)ethyl)cyclopropene] | 0 (an area in which the surface of tomato was colored in pink was 10% or less) (2×) and 1 (an area in which the surface of tomato was completely colored in red was 10 to 40%) and 2 (an area in which the surface of tomato was completely colored in red was 40 to 70%)
COc1ccc(CCCC2=CC2)cc1 [(3-(4-Methoxyphenyl)propyl), 1-(3-(4-methoxyphenyl)propyl)cyclopropene] | 0 (an area in which the surface of tomato was colored in pink was 10% or less) (2×) and 1 (an area in which the surface of tomato was completely colored in red was 10 to 40%) and 2 (an area in which the surface of tomato was completely colored in red was 40 to 70%)
C1=C(CCCOc2ccccc2)C1 [(3-Phenoxypropyl), 1-(3-phenoxypropyl)cyclopropene] | 0 (an area in which the surface of tomato was colored in pink was 10% or less) (2×) and 1 (an area in which the surface of tomato was completely colored in red was 10 to 40%) and 2 (an area in which the surface of tomato was completely colored in red was 40 to 70%)

Same assay, conditions: 1.0 mM Oil-based formulation, Day 1, room temperature (25-30° C.), individual tomatoes n=4

SMILES | reddening level (grade 0 to 5)
COc1ccc(CCC2=CC2)cc1 [(2-(4-Methoxyphenyl)ethyl), 1-(2-(4-methoxyphenyl)ethyl)cyclopropene] | 1 (an area in which the surface of tomato was completely colored in red was 10 to 40%) (2×) and 2 (an area in which the surface of tomato was completely colored in red was 40 to 70%) and 3 (an area in which the surface of tomato was completely colored in red was 70% or more and the bottom area remained green)
COc1ccc(CCCC2=CC2)cc1 [(3-(4-Methoxyphenyl)propyl), 1-(3-(4-methoxyphenyl)propyl)cyclopropene] | 0 (an area in which the surface of tomato was colored in pink was 10% or less) (2×) and 1 (an area in which the surface of tomato was completely colored in red was 10 to 40%) and 2 (an area in which the surface of tomato was completely colored in red was 40 to 70%)
C1=C(CCCOc2ccccc2)C1 [(3-Phenoxypropyl), 1-(3-phenoxypropyl)cyclopropene] | 0 (an area in which the surface of tomato was colored in pink was 10% or less) (2×) and 1 (an area in which the surface of tomato was completely colored in red was 10 to 40%) and 2 (an area in which the surface of tomato was completely colored in red was 40 to 70%)

Same assay, conditions: 1.0 mM Oil-based formulation, Day 2, room temperature (25-30° C.), individual tomatoes n=4

SMILES | reddening level (grade 0 to 5)
COc1ccc(CCC2=CC2)cc1 [(2-(4-Methoxyphenyl)ethyl), 1-(2-(4-methoxyphenyl)ethyl)cyclopropene] | 2 (an area in which the surface of tomato was completely colored in red was 40 to 70%) (2×) and 3 (an area in which the surface of tomato was completely colored in red was 70% or more and the bottom area remained green) and 4
COc1ccc(CCCC2=CC2)cc1 [(3-(4-Methoxyphenyl)propyl), 1-(3-(4-methoxyphenyl)propyl)cyclopropene] | 1 (an area in which the surface of tomato was completely colored in red was 10 to 40%) (2×) and 2 (an area in which the surface of tomato was completely colored in red was 40 to 70%) and 3 (an area in which the surface of tomato was completely colored in red was 70% or more and the bottom area remained green)
C1=C(CCCOc2ccccc2)C1 [(3-Phenoxypropyl), 1-(3-phenoxypropyl)cyclopropene] | 0 (an area in which the surface of tomato was colored in pink was 10% or less) (2×) and 2 (an area in which the surface of tomato was completely colored in red was 40 to 70%) and 3 (an area in which the surface of tomato was completely colored in red was 70% or more and the bottom area remained green)

Same assay, conditions: 1.0 mM Oil-based formulation, Day 3, room temperature (25-30° C.), individual tomatoes n=4

SMILES | reddening level (grade 0 to 5)
COc1ccc(CCC2=CC2)cc1 [(2-(4-Methoxyphenyl)ethyl), 1-(2-(4-methoxyphenyl)ethyl)cyclopropene] | 3 (an area in which the surface of tomato was completely colored in red was 70% or more and the bottom area remained green) (2×) and 4 and 5
COc1ccc(CCCC2=CC2)cc1 [(3-(4-Methoxyphenyl)propyl), 1-(3-(4-methoxyphenyl)propyl)cyclopropene] | 1 (an area in which the surface of tomato was completely colored in red was 10 to 40%) and 2 (an area in which the surface of tomato was completely colored in red was 40 to 70%) and 3 (an area in which the surface of tomato was completely colored in red was 70% or more and the bottom area remained green) (2×)
C1=C(CCCOc2ccccc2)C1 [(3-Phenoxypropyl), 1-(3-phenoxypropyl)cyclopropene] | 1 (an area in which the surface of tomato was completely colored in red was 10 to 40%) (2×) and 2 (an area in which the surface of tomato was completely colored in red was 40 to 70%) and 3 (an area in which the surface of tomato was completely colored in red was 70% or more and the bottom area remained green)
